Measurements as given in the supplement of paper PMC11061612.

What was measured:
Assay in all cases: combination Emax (second highest fraction inhibited in the dose matrix, 72 h); higher = more inhibition; extreme values may be limits of the assay
ES6 (Ewing's Sarcoma) = tested on: ES6 (Ewing's Sarcoma)
In short: (§1)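 After 24 hours at 37°C and 5% CO2 in 1536-well plates, cells in DMEM/F12 or RPMI plus 10% FBS received two-drug dose matrices for 72 hours. Viability came from CellTiter-Glo 2.0 luminescence and was scaled as inhibition, anchored at 0 by vehicle wells and at 1 by blank wells. Combination Emax is taken as the second-highest inhibition in the matrix, and Bliss excess as the observed combination effect less EA + EB − EA·EB, with EA and EB the single-agent effects.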

NCI-H2373 (Mesothelioma) = tested on: NCI-H2373 (Mesothelioma)
In short: as §1

[1] = tested on: SNU-423 (Hepatocellular Carcinoma)
In short: as §1

[2] = tested on: SUP-M2 (T-Cell Non-Hodgkin's Lymphoma)
In short: as §1

[3] = tested on: OVCAR-3 (Ovarian Carcinoma)
In short: as §1

[4] = tested on: BxPC-3 (Pancreatic Carcinoma)
In short: as §1

[5] = tested on: PL4 (Pancreatic Carcinoma)
In short: as §1

[6] = tested on: COR-L88 (Small Cell Lung Carcinoma)
In short: as §1

GAK (Melanoma) = tested on: GAK (Melanoma)
In short: as §1

[7] = tested on: BHT-101 (Thyroid Gland Carcinoma)
In short: as §1

[8] = tested on: SK-CO-1 (Colorectal Carcinoma)
In short: as §1

[9] = tested on: P32-ISH (Burkitt's Lymphoma)
In short: as §1

[10] = tested on: IA-LM (Non-Small Cell Lung Carcinoma)
In short: as §1

[11] = tested on: SiHa (Cervical Carcinoma)
In short: as §1

Row | Structure (SMILES) | combination Emax (ES6 (Ewing's Sarcoma)) | combination Emax (NCI-H2373 (Mesothelioma)) | combination Emax [1] | combination Emax [2] | combination Emax [3] | combination Emax [4] | combination Emax [5] | combination Emax [6] | combination Emax (GAK (Melanoma)) | combination Emax [7] | combination Emax [8] | combination Emax [9] | combination Emax [10] | combination Emax [11]
1 | CN(CCO)CC[C@H](CSc1ccccc1)Nc1ccc(S(=O)(=O)NC(=O)c2ccc(N3CCC([C@@H](O)c4ccccc4-c4ccc(Cl)cc4)CC3)cc2)cc1S(=O)(=O)C(F)(F)F [AZD4320] + C[C@@H]1COCCN1C2=NC(=NC(=C2)C3(CC3)[S@](=N)(=O)C)C4=C5C=CNC5=NC=C4 [AZD6738] (first compound max 1 µM, 7x7, partner max 10 µM) | 0.665 | 0.672 | 0.624 | 0.998 | 0.555 | 0.751 | 0.878 | 0.992 | 0.793 | 0.877 | 0.928 | 0.896 | 0.715 | 0.246
2 | CN(CCO)CC[C@H](CSc1ccccc1)Nc1ccc(S(=O)(=O)NC(=O)c2ccc(N3CCC([C@@H](O)c4ccccc4-c4ccc(Cl)cc4)CC3)cc2)cc1S(=O)(=O)C(F)(F)F [AZD4320] + C[C@@H](Nc1cc(F)cc(F)c1)c1cc(C(=O)N(C)C)cc2c(=O)cc(N3CCOCC3)oc12 [AZD8186] (first compound max 1 µM, 7x7, partner max 3 µM) | 0.463 | 0.48 | 0.547 | 0.944 | 0.512 | 0.252 | 0.694 | 0.966 | 0.312 | 0.616 | 0.917 | 0.782 | 0.617 | 0.33
3 | CN(CCO)CC[C@H](CSc1ccccc1)Nc1ccc(S(=O)(=O)NC(=O)c2ccc(N3CCC([C@@H](O)c4ccccc4-c4ccc(Cl)cc4)CC3)cc2)cc1S(=O)(=O)C(F)(F)F [AZD4320] + Cc1cc2ncnn2cc1Nc1ncc2c(n1)n(C1CCOCC1)c(=O)n2C [AZD7648] (first compound max 1 µM, 7x7, partner max 10 µM) | 0.268 | 0.374 | 0.39 | 0.47 | 0.156 | 0.0888 | 0.421 | 0.964 | 0.314 | 0.363 | 0.646 | 0.193 | 0.488 | 0.12
4 | CN(CCO)CC[C@H](CSc1ccccc1)Nc1ccc(S(=O)(=O)NC(=O)c2ccc(N3CCC([C@@H](O)c4ccccc4-c4ccc(Cl)cc4)CC3)cc2)cc1S(=O)(=O)C(F)(F)F [AZD4320] + Cn1cnc2c(F)c(Nc3ccc(Br)cc3Cl)c(C(=O)NOCCO)cc21 [Selumetinib] (first compound max 1 µM, 7x7, partner max 3 µM) | 0.449 | 0.406 | 0.414 | 0.959 | 0.563 | 0.379 | 0.751 | 0.959 | 0.796 | 0.852 | 0.941 | 0.801 | 0.744 | 0.247
5 | Cc1c2c(nn1C)CSCc1cc(n(C)n1)CSc1cc(c3ccccc3c1)OCCCc1c(C(=O)O)n(C)c3c-2c(Cl)ccc13 [AZD5991] + C1CN(CCC1(C(=O)N[C@@H](CCO)C2=CC=C(C=C2)Cl)N)C3=NC=NC4=C3C=CN4 [Capivasertib] (first compound max 1 µM, 7x7, partner max 3 µM) | 0.281 | 0.42 | 0.341 | 1 | 0.185 | 0.126 | 0.339 | 0.259 | 0.179 | 0.418 | 0.213 | 1 | 0.15 | 0.23
6 | Cc1c2c(nn1C)CSCc1cc(n(C)n1)CSc1cc(c3ccccc3c1)OCCCc1c(C(=O)O)n(C)c3c-2c(Cl)ccc13 [AZD5991] + C=CCn1c(=O)c2cnc(Nc3ccc(N4CCN(C)CC4)cc3)nc2n1-c1cccc(C(C)(C)O)n1 [AZD1775] (first compound max 1 µM, partner max 1 µM) | 0.386 | 0.394 | 0.591 | 1 | 0.835 | 0.616 | 0.737 | 0.744 | 0.802 | 0.732 | 0.517 | 1 | 0.265 | 0.314
7 | Cc1c2c(nn1C)CSCc1cc(n(C)n1)CSc1cc(c3ccccc3c1)OCCCc1c(C(=O)O)n(C)c3c-2c(Cl)ccc13 [AZD5991] + CC1(C)CCC(CN2CCN(c3ccc(C(=O)NS(=O)(=O)c4ccc(NCC5CCOCC5)c([N+](=O)[O-])c4)c(Oc4cnc5[nH]ccc5c4)c3)CC2)=C(c2ccc(Cl)cc2)C1 [Venetoclax] (first compound max 1 µM, 7x7, partner max 1 µM) | 0.255 | 0.161 | 0.144 | 0.994 | 0.171 | 0.334 | 0.234 | 0.817 | 0.523 | 0.587 | 0.16 | 1 | 0.317 | 0.137
8 | Cc1c2c(nn1C)CSCc1cc(n(C)n1)CSc1cc(c3ccccc3c1)OCCCc1c(C(=O)O)n(C)c3c-2c(Cl)ccc13 [AZD5991] + CCN(CCO)CCCOc1ccc2c(Nc3cc(CC(=O)Nc4cccc(F)c4)[nH]n3)ncnc2c1 [AZD2811] (first compound max 1 µM, 7x7, partner max 1 µM) | 0.29 | 0.267 | 0.335 | 1 | 0.378 | 0.269 | 0.474 | 0.36 | 0.314 | 0.267 | 0.73 | 1 | 0.296 | 0.368
9 | Cc1c2c(nn1C)CSCc1cc(n(C)n1)CSc1cc(c3ccccc3c1)OCCCc1c(C(=O)O)n(C)c3c-2c(Cl)ccc13 [AZD5991] + CN(C)CCCOc1ccc(-c2ccc3ncc4c(c3c2)n(C2CCOCC2)c(=O)n4C)cn1 [AZD0156] (first compound max 1 µM, 7x7, partner max 1 µM) | 0.279 | 0.272 | 0.297 | 1 | 0.427 | 0.174 | 0.357 | 0.3 | 0.266 | 0.659 | 0.363 | 1 | 0.257 | 0.326
10 | Cc1c2c(nn1C)CSCc1cc(n(C)n1)CSc1cc(c3ccccc3c1)OCCCc1c(C(=O)O)n(C)c3c-2c(Cl)ccc13 [AZD5991] + C[C@@H]1COCCN1C2=NC(=NC(=C2)C3(CC3)[S@](=N)(=O)C)C4=C5C=CNC5=NC=C4 [AZD6738] (first compound max 1 µM, 7x7, partner max 10 µM) | 0.445 | 0.551 | 0.471 | 1 | 0.567 | 0.518 | 0.761 | 0.671 | 0.593 | 0.859 | 0.615 | 1 | 0.389 | 0.318
11 | Cc1c2c(nn1C)CSCc1cc(n(C)n1)CSc1cc(c3ccccc3c1)OCCCc1c(C(=O)O)n(C)c3c-2c(Cl)ccc13 [AZD5991] + C[C@@H](Nc1cc(F)cc(F)c1)c1cc(C(=O)N(C)C)cc2c(=O)cc(N3CCOCC3)oc12 [AZD8186] (first compound max 1 µM, 7x7, partner max 3 µM) | 0.354 | 0.287 | 0.431 | 0.996 | 0.439 | 0.206 | 0.421 | 0.221 | 0.349 | 0.659 | 0.283 | 1 | 0.201 | 0.356
12 | Cc1c2c(nn1C)CSCc1cc(n(C)n1)CSc1cc(c3ccccc3c1)OCCCc1c(C(=O)O)n(C)c3c-2c(Cl)ccc13 [AZD5991] + Cc1cc2ncnn2cc1Nc1ncc2c(n1)n(C1CCOCC1)c(=O)n2C [AZD7648] (first compound max 1 µM, 7x7, partner max 10 µM) | 0.334 | 0.409 | 0.362 | 1 | 0.272 | 0.231 | 0.386 | 0.297 | 0.305 | 0.599 | 0.279 | 1 | 0.295 | 0.255
13 | Cc1c2c(nn1C)CSCc1cc(n(C)n1)CSc1cc(c3ccccc3c1)OCCCc1c(C(=O)O)n(C)c3c-2c(Cl)ccc13 [AZD5991] + Cn1cnc2c(F)c(Nc3ccc(Br)cc3Cl)c(C(=O)NOCCO)cc21 [Selumetinib] (first compound max 1 µM, 7x7, partner max 3 µM) | 0.209 | 0.318 | 0.27 | 1 | 0.218 | 0.483 | 0.573 | 0.17 | 0.776 | 0.913 | 0.818 | 1 | 0.24 | 0.305
14 | C[C@@H]1COCCN1c1cc(C2([S@](C)(=N)=O)CC2)nc(-c2ccnc3[nH]ccc23)n1 [AZD6738] + O=C(c1cc(Cc2n[nH]c(=O)c3ccccc23)ccc1F)N1CCN(C(=O)C2CC2)CC1 [Olaparib] (first compound max 10 µM, 7x7, partner max 10 µM) | 0.522 | 0.66 | 0.576 | 1 | 0.555 | 0.485 | 0.672 | 0.342 | 0.564 | 0.663 | 0.768 | 0.91 | 0.399 | 0.228
15 | Cc1cc2ncnn2cc1Nc1ncc2c(n1)n(C1CCOCC1)c(=O)n2C [AZD7648] + C=CCn1c(=O)c2cnc(Nc3ccc(N4CCN(C)CC4)cc3)nc2n1-c1cccc(C(C)(C)O)n1 [AZD1775] (first compound max 10 µM, partner max 1 µM) | 0.505 | 0.484 | 0.497 | 0.991 | 0.411 | 0.428 | 0.379 | 0.545 | 0.713 | 0.471 | 0.521 | 1 | 0.42 | 0.308
16 | Cc1cc2ncnn2cc1Nc1ncc2c(n1)n(C1CCOCC1)c(=O)n2C [AZD7648] + CCN(CCO)CCCOc1ccc2c(Nc3cc(CC(=O)Nc4cccc(F)c4)[nH]n3)ncnc2c1 [AZD2811] (first compound max 10 µM, 7x7, partner max 1 µM) | 0.407 | 0.534 | 0.341 | 0.932 | 0.116 | 0.25 | 0.142 | 0.244 | 0.237 | 0.25 | 0.549 | 0.935 | 0.268 | 0.335
